System: G-401 tumor spheroids, viability % test/control
Experiment: Anticancer human tumor G-401 cell line growth inhibition;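 note: spheroids exposed to compound for 7 days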;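 for viability, T/C: 100% = DMSO vehicle-treated spheroids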
Conditions: spheroids with HUVEC and MSC; for IC50: curve of first compound; for viability, T/C: stronger effect = lower value; active = viability on the fitted dose curve at most 10% of control; inactive = the rest
Source text: Multicellular complex tumor spheroid response to DNA repair inhibitors in combination with DNA-damaging drugs
This study explores the anticancer activities of DNA-damaging drugs and inhibitors of DNA damage repair, both as single agents and in combinations. Complex tumor spheroids comprised of malignant cells, endothelial cells and mesenchymal stem cells served as an in vitro model for human solid tumors. This model system incorporates physiologically relevant features and patient-derived or established malignant cell lines with clinically relevant genetic alterations from many tumor types. Twenty-six patient-derived or established malignant cell lines were evaluated representing sarcoma, melanoma, small cell lung cancer (SCLC), non-small cell lung cancer (NSCLC), as well as bladder, ovarian and pancreatic cancers. The concentration ranges selected for each drug and investigational agent were based upon clinically achievable concentrations if the clinical Cmax of the agent was known.
Compounds. The drugs and compounds olaparib (NSC753686), talazoparib (NSC767125), berzosertib (NSC777718), elimusertib (NSC800525), nedisertib (NSC802822), VX-984 (NSC792969), AZD-1390 (NSC803789), temozolomide (NSC362856), topotecan (NSC609699), trabectedin (NSC813783), staurosporine (NSC755774), and gemcitabine (NSC613327) were obtained from the National Cancer Institute (NCI) Developmental Therapeutics Program Chemical Repository. The FDA-approved anticancer drug set is available from the Developmental Therapeutics Program at https://dtp.cancer.gov/organization/dscb/obtaining/available_plates.htm. […] The stock solutions were prepared in dimethyl sulfoxide (DMSO, Sigma-Aldrich, St. Louis, MO, cat. D2650) at 400-fold the tested concentration and stored at -70 degrees C. Prior to their use, the stock solutions were diluted in fresh medium and the final DMSO concentration in the assay was 0.25% (v/v). All drugs and investigational agents were tested over a range starting from a high concentration at or near the clinical Cmax and decreasing in half-log increments. If the clinical Cmax for an agent had not been determined, the highest concentration tested was 10 microM.
Cell Lines. The patient-derived cancer cell (PDC) lines: 156681-154-R-J1-PDC, 283228-195-R-J1-PDC, 287954-098-R-J1-PDC, 292921-168-R-J2-PDC, 349418-098-R-PDC, 425362-245-T-J1-PDC, 556581-035-R-J1-PDC, and BL0293-F563-PDC were received from the NCI Patient-Derived Models Repository (PDMR, https://pdmr.cancer.gov). The established cell lines HS-SY-2 (RRID:CVCL_8719), MPNST, and SYO-1 (RRID:CVCL_7146) were obtained from the Sloan Kettering Institute. The alveolar soft parts sarcoma cell line ASPS-1 (RRID:CVCL_S738) was established at the NCI and grown from internal seed stocks. The following established cell lines were purchased from the American Type Culture Collection (ATCC, Manassas, VA): G-401 (ATCC, cat. CRL-1441, RRID:CVCL_0270), SW982 (ATCC, cat. HTB-93, RRID:CVCL_1734), VA-ES-BJ (ATCC, cat. CRL-2138, RRID:CVCL_1785), NCI-H719 (ATCC, cat. CRL-5837, RRID:CVCL_1582), NCI-H196 (ATCC, cat. CRL-5823, RRID:CVCL_1509), NCI-H841 (ATCC, cat. CRL-5845, RRID:CVCL_1595), NCI-H1618 (ATCC, cat. CRL-5879, RRID:CVCL_1480), NCI-H1876 (ATCC, cat. CRL-5902, RRID:CVCL_1503), DMS 114 (ATCC, cat. CRL-2066; RRID:CVCL_1174), NCI-H211 (ATCC, cat. CRL-5824; RRID:CVCL_1529), and SW 1271 (ATCC, cat. CRL-2177, RRID:CVCL_1716). The small cell lung cancer cell line COR-L88 was purchased from Sigma-Aldrich (cat. 92031917-1VL, RRID:CVCL_1141). The non-small cell lung cancer cell lines NCI-H226 (RRID:CVCL_1544) and NCI-H322M (RRID:CVCL_1557) were established at the NCI and grown from internal seed stocks. Pooled donor human umbilical vein endothelial cells (HUVEC, Lonza, cat. CC-2519) and human mesenchymal stem cells (hMSC, Lonza, cat. PT-2501) were purchased from Lonza (Walkersville, MD).
Cell Culture. All cells were maintained in an incubator at 37 degrees C and 5% CO2 with 95% humidity. […]

[1] = second compound 0.003 µM, first compound 0.00949 µM
[2] = second compound 0.003 µM, first compound 0.03 µM
[3] = second compound 0.003 µM, first compound 0.0949 µM
[4] = second compound 0.003 µM, first compound 0.3 µM
[5] = second compound 0.003 µM, first compound 0.949 µM
[6] = second compound 0.003 µM, first compound 3 µM
[7] = second compound 0.00949 µM, first compound 0.00949 µM
[8] = second compound 0.00949 µM, first compound 0.03 µM
[9] = second compound 0.00949 µM, first compound 0.0949 µM
[10] = second compound 0.00949 µM, first compound 0.3 µM
[11] = second compound 0.00949 µM, first compound 0.949 µM
[12] = second compound 0.00949 µM, first compound 3 µM
[13] = second compound 0.03 µM, first compound 0.00949 µM
[14] = second compound 0.03 µM, first compound 0.03 µM
[15] = second compound 0.03 µM, first compound 0.0949 µM
[16] = second compound 0.03 µM, first compound 0.3 µM
[17] = second compound 0.03 µM, first compound 0.949 µM
[18] = second compound 0.03 µM, first compound 3 µM
[19] = second compound 0.0949 µM, first compound 0.00949 µM
[20] = second compound 0.0949 µM, first compound 0.03 µM
[21] = second compound 0.0949 µM, first compound 0.0949 µM
[22] = second compound 0.0949 µM, first compound 0.3 µM
[23] = second compound 0.0949 µM, first compound 0.949 µM
[24] = second compound 0.0949 µM, first compound 3 µM
[25] = second compound 0.3 µM, first compound 0.00949 µM
[26] = second compound 0.3 µM, first compound 0.03 µM
[27] = second compound 0.3 µM, first compound 0.0949 µM
[28] = second compound 0.3 µM, first compound 0.3 µM
[29] = second compound 0.3 µM, first compound 0.949 µM
[30] = second compound 0.3 µM, first compound 3 µM

CNCc1ccc(-c2cc(-c3nc(-c4ccc(S(=O)(=O)C(C)C)cc4)cnc3N)on2)cc1 + CC[C@@]1(O)C(=O)OCc2c1cc1n(c2=O)Cc2cc3c(CN(C)C)c(O)ccc3nc2-1
326 nM: IC50 (second compound 0.003 µM)
< 9.49 nM: IC50 (second compound 0.00949 µM) | IC50 (second compound 0.03 µM) | IC50 (second compound 0.0949 µM) | IC50 (second compound 0.3 µM)
inactive: viability, T/C [1] 82.9% | viability, T/C [2] 88% | viability, T/C [3] 81.7% | viability, T/C [4] 50.5% | viability, T/C [5] 30.2% | viability, T/C [6] 21.1% | viability, T/C [7] 43.9% | viability, T/C [8] 51.2% | viability, T/C [9] 39.5% | viability, T/C [10] 21.5% | viability, T/C [11] 16.5% | viability, T/C [12] 17.1% | viability, T/C [13] 21% | viability, T/C [14] 15.8% | viability, T/C [15] 17.9% | viability, T/C [16] 19.5% | viability, T/C [17] 20.8% | viability, T/C [18] 18.1% | viability, T/C [19] 8.75% | viability, T/C [20] 8.82% | viability, T/C [21] 12.4% | viability, T/C [22] 16.4% | viability, T/C [23] 16.9% | viability, T/C [24] 13.3%
active: viability, T/C [25] 4.81% | viability, T/C [26] 6.19% | viability, T/C [27] 7.23% | viability, T/C [28] 9.53% | viability, T/C [29] 9.78% | viability, T/C [30] 4.97%

Cn1ncnc1[C@H]1c2n[nH]c(=O)c3cc(F)cc(c23)N[C@@H]1c1ccc(F)cc1 + CC[C@@]1(O)C(=O)OCc2c1cc1n(c2=O)Cc2cc3c(CN(C)C)c(O)ccc3nc2-1
< 9.49 nM: IC50 (second compound 0.003 µM) | IC50 (second compound 0.00949 µM) | IC50 (second compound 0.03 µM) | IC50 (second compound 0.0949 µM) | IC50 (second compound 0.3 µM)
inactive: viability, T/C [1] 30.3% | viability, T/C [2] 25.3% | viability, T/C [3] 22.9% | viability, T/C [4] 14.9% | viability, T/C [5] 13.6% | viability, T/C [7] 14.6% | viability, T/C [8] 14.9% | viability, T/C [9] 11.5% | viability, T/C [10] 10.4%
active: viability, T/C [6] 8.75% | viability, T/C [11] 8.82% | viability, T/C [12] 7.7% | viability, T/C [13] 8.82% | viability, T/C [14] 7.7% | viability, T/C [15] 6.78% | viability, T/C [16] 6.5% | viability, T/C [17] 6.42% | viability, T/C [18] 5.33% | viability, T/C [19] 6.07% | viability, T/C [20] 5.84% | viability, T/C [21] 6.01% | viability, T/C [22] 5.6% | viability, T/C [23] 5.23% | viability, T/C [24] 3.98% | viability, T/C [25] 4.4% | viability, T/C [26] 4.94% | viability, T/C [27] 4.58% | viability, T/C [28] 4.17% | viability, T/C [29] 3.92% | viability, T/C [30] 2.85%

O=C(c1cc(Cc2n[nH]c(=O)c3ccccc23)ccc1F)N1CCN(C(=O)C2CC2)CC1 + CC[C@@]1(O)C(=O)OCc2c1cc1n(c2=O)Cc2cc3c(CN(C)C)c(O)ccc3nc2-1
active: viability, T/C [15] 9.43% | viability, T/C [16] 10.1% | viability, T/C [17] 10.1% | viability, T/C [18] 9.87% | viability, T/C (second compound 0.03 µM, first compound 9.49 µM) 9.41% | viability, T/C (second compound 0.03 µM, first compound 30 µM) 9.05% | viability, T/C [21] 7.02% | viability, T/C [22] 6.74% | viability, T/C [23] 7.7% | viability, T/C [24] 7.1% | viability, T/C (second compound 0.0949 µM, first compound 9.49 µM) 6.71% | viability, T/C (second compound 0.0949 µM, first compound 30 µM) 7.06% | viability, T/C [27] 4.94% | viability, T/C [28] 5.39% | viability, T/C [29] 5.37% | viability, T/C [30] 6.35% | viability, T/C (second compound 0.3 µM, first compound 9.49 µM) 5.22% | viability, T/C (second compound 0.3 µM, first compound 30 µM) 6.07%
< 94.9 nM: IC50 (second compound 0.00949 µM) | IC50 (second compound 0.03 µM) | IC50 (second compound 0.0949 µM) | IC50 (second compound 0.3 µM)
991 nM: IC50 (second compound 0.003 µM)
inactive: viability, T/C [3] 49.4% | viability, T/C [4] 51.8% | viability, T/C [5] 52.1% | viability, T/C [6] 43.9% | viability, T/C (second compound 0.003 µM, first compound 9.49 µM) 28.3% | viability, T/C (second compound 0.003 µM, first compound 30 µM) 13.6% | viability, T/C [9] 18.2% | viability, T/C [10] 19.1% | viability, T/C [11] 24% | viability, T/C [12] 18.4% | viability, T/C (second compound 0.00949 µM, first compound 9.49 µM) 17.2% | viability, T/C (second compound 0.00949 µM, first compound 30 µM) 12.4%

From PubChem BioAssay AID1845203 (Molecular Pharmacology Branch, DTP, NCI, 2023)
